From US20090227619A1, “Harmine derivatives, intermediates used in their preparations, preparation processes and use therefo” (priority 2003, published 2009)
Like-named read-outs stand apart in the source and are kept apart here.

Columns and labels:
[1] = test system: S180 sarcoma; conditions: S180 sarcoma; for Body weight of the animals, beginning, First time / Body weight of the animals, end, First time / Inhibition rate, First time / Weight of the tumor X ± SD, First time: ip × 10qd; for Inhibition rate (%) S180 sarcomata: comparison table 43, in vivo
[2] = test system: HepG2; assay: In vitro cytotoxicity, IC50 by MTT method, HepG2; type: cell-based, human; conditions: Homo sapiens
Description: (§1) Culture medium powder RPMI1640 was dissolved in a proper amount of tri-distilled water according to the instruction of the product. […] It was the basic culture solution. The complete culture solution was added with FBS having a final concentration of 10%, 100 U/ml penicillin and 100 µg/ml streptomycin. The solution was fully stirred by a magnetic blender, and the pH of the solution was adjusted to 6.8-7.0. The volume was kept constant. After being filtered and disinfected, the solution was kept into several containers which were sealed and stored at 4° C.
(§2) The cells were placed in a culture dish followed by the addition of complete culture liquid RPMI1640 and then cultured in a incubator comprising 5% CO2 at 37° C. In the exponential growth phase, the cells grew vigorously. If the culture liquid became yellow, the liquid should be replaced instantly.
(§3) The cells, at a concentration of 10^5/ml, were inoculated at a 96-pore culture plate. In each pore, 100 μl cells were inoculated. The cells were placed in a CO2 incubator until the cells were in the logarithmic growth phase. The samples to be tested were added according to the preset concentration gradient. For each gradient, the test was conducted at least three times. An equivalent amount of solvent for dissolving the samples was added in the control group. After 48 h of culture, each pore was added 20 μl MTT (5 mg/ml). The cells were cultured at 37° C. for 4 h. After the supernatant was carefully removed, 100 μl DMSO was added in each pore. The plate was agitated for about 10 minutes such that the precipitates were dissolved. After that, OD value was identified with a Microplate Reader at the wavelength of 490 nm. The survival rate of the cells at various concentrations was calculated according to the following formula:
(§4) Survival rate %=average OD value of the sample group/average OD value of the control group×100%
(§5) Plots of log survival rate of the cells vs. concentration of the medicament were constructed, and the IC50 value of each sample was calculated according to graphing methods.

[3] = test system: Hela; assay: In vitro cytotoxicity, IC50 by MTT method, Hela; type: cell-based; conditions: Homo sapiens
Description: as §1, §2, §3, §4, §5

[4] = test system: BGC-823; assay: In vitro cytotoxicity, IC50 by MTT method, BGC-823; type: cell-based; conditions: Homo sapiens, BGC-823
Description: as §1, §2, §3, §4, §5

[5] = test system: Lovo; assay: In vitro cytotoxicity, IC50 by MTT method, Lovo; type: cell-based; conditions: Homo sapiens
Description: as §1, §2, §3, §4, §5

[6] = test system: PLA-801; assay: In vitro cytotoxicity, IC50 by MTT method, PLA-801; type: cell-based
Description: as §1, §2, §3, §4, §5

[7] = test system: NIH3T3; assay: In vitro cytotoxicity, IC50 by MTT method, NIH3T3; type: cell-based; conditions: Mus musculus
Description: as §1, §2, §3, §4, §5

[8] = test system: Lewis lung cancer; conditions: for Anti-tumor activity compared with harmine (compound 1): Lewis lung cancer in mice, among 22 compounds tested; for Body weight of the animals, end, First time / Body weight of the animals, beginning, First time / Inhibition rate, First time / Weight of the tumor X ± SD, First time / Inhibition rate (%) Lewis cancer: Lewis lung cancer; for Body weight of the animals, end, First time: ip × 10qd; for Inhibition rate (%) Lewis cancer: comparison table 43, in vivo;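 as to all read-outs here: mice implanted subcutaneously in the axilla with Lewis lung tumor cells, treated starting the following day, killed roughly three weeks after implantation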
Description: There was one group of 8 to 10 mice C57BL/6 and Kunming mice for the anti-tumor tests and two groups of mice for negative control.
(3) Sources of tumors: Lewis lung cancer cells and S180 sarcoma in mice, which were sub-cultured and maintained by Pharmacological Center of Shanghai Pharmaceutical Industrial Research Institute.
All samples were weighed and added a small amount of Tween-80 to facilitate dissolution during the experiment, and then 0.5% CMC-Na solution was gradually added to achieve the desired concentration. The volume for experiment was 0.5 ml/20 g mouse.
The medicaments were intraperitoneally administered once a day continuously for 10 days.
For the negative control group, a vehicle of the same volume was intraperitoneally administered once a day continuously for 10 days. For the positive control group, CTX was administered in the dosage of 30 mg/kg once a day continuously for 7 days.
In vivo anti-tumor subcutaneous vaccination in the axilla was employed. Wildly grown tumor source was taken under sterile conditions to form a cell suspension of about 1×10^7 ml by homogenization method. For a corresponding mouse host, the suspension was injected in the axilla in an amount of 0.2 ml/mouse. The next day, the medicaments were administered according to the design of the tests. About three weeks later, all the groups of animals were executed. The tumors were taken from the animals and weighed. The inhibition rate of tumors was calculated according to the following formula:
T: average tumor weight of treated group; C: average tumor weight of negative control group.

[9] = test system: Bel-7402; assay: In vitro cytotoxicity, IC50 by MTT method, Bel-7402; type: cell-based; conditions: Homo sapiens, Bel-7402
Description: as §1, §2, §3, §4, §5

Structure (SMILES) | Body weight of the animals, beginning, First time ([1]; Dosage 50 (mg/ml)) | Body weight of the animals, end, First time ([1]; Dosage 50 (mg/ml)) | Inhibition rate, First time ([1]; Dosage 50 (mg/ml)) | Weight of the tumor X ± SD, First time ([1]; Dosage 50 (mg/ml)) | Body weight of the animals, beginning, First time ([1]; Dosage 100 (mg/ml)) | Body weight of the animals, end, First time ([1]; Dosage 100 (mg/ml)) | Inhibition rate, First time ([1]; Dosage 100 (mg/ml)) | Weight of the tumor X ± SD, First time ([1]; Dosage 100 (mg/ml)) | Inhibition rate (%) S180 sarcomata [1] | IC50 ([2]; HepG2, MTT, read-out: IC50) | IC50 ([3]; Hela, MTT, read-out: IC50) | Body weight of the animals, end, First time ([8]; Dosage 50 (mg/ml)) | Body weight of the animals, beginning, First time ([8]; Dosage 50, ip × 10qd) | Inhibition rate, First time ([8]; Dosage 50, ip × 10qd) | Weight of the tumor X ± SD, First time ([8]; Dosage 50, ip × 10qd) | Body weight of the animals, end, First time ([8]; Dosage 100 (mg/ml)) | Body weight of the animals, beginning, First time ([8]; Dosage 100, ip × 10qd) | Inhibition rate, First time ([8]; Dosage 100, ip × 10qd) | Weight of the tumor X ± SD, First time ([8]; Dosage 100, ip × 10qd) | Inhibition rate (%) Lewis cancer [8] | also measured
COC(=O)c1cc2c([nH]c3ccccc32)c(-c2ccccc2)n1 [Compound 14, methyl 1-phenyl-β-carboline-3-carboxylate] | 19.8 g | 26.7 g | 24.43% | 1.98 ± 0.28 g | 19.9 g | 25.5 g | 32.06% | 1.78 ± 0.20 g | 34.16% | 1180 µM | 320 µM | 23.8 g | 20.1 g | 27.57% | 1.76 ± 0.25 g | 23.1 g | 20.7 g | 34.16% | 1.60 ± 0.19 g | 32.06% | IC50 ([4]; BGC823, MTT, read-out: IC50): 1680 µM; IC50 ([5]; Lovo, MTT, read-out: IC50): 2480 µM; IC50 ([6]; PLA-801, MTT, read-out: IC50): 1900 µM; IC50 ([7]; NIH3T3, MTT, read-out: IC50): 490 µM; Anti-tumor activity compared with harmine (compound 1) [8]: a little worse than or equivalent to that of harmines; IC50 ([9]; BeI7402, MTT, read-out: IC50): > 5000 µM
COC(=O)c1cc2c([nH]c3ccccc32)c(-c2ccc(OC)cc2)n1 [Compound 15, methyl 1-(4-methoxyphenyl)-β-carboline-3-carboxylate] | 19.8 g | 26.4 g | 23.66% | 2.00 ± 0.16 g | 19.9 g | 26.0 g | 35.50% | 1.69 ± 0.16 g | 32.10% | > 3000 µM | > 3000 µM | 23.9 g | 20.4 g | 25.51% | 1.81 ± 0.28 g | 24.0 g | 20.3 g | 32.10% | 1.65 ± 0.17 g | 35.50% | IC50 ([4]; BGC823, MTT, read-out: IC50): > 3000 µM; IC50 ([5]; Lovo, MTT, read-out: IC50): > 3000 µM; IC50 ([6]; PLA-801, MTT, read-out: IC50): > 3000 µM; IC50 ([7]; NIH3T3, MTT, read-out: IC50): > 3000 µM; Anti-tumor activity compared with harmine (compound 1) [8]: a little worse than or equivalent to that of harmines; IC50 ([9]; BeI7402, MTT, read-out: IC50): > 3000 µM
CCOC(=O)c1cc2c3ccccc3n(CC)c2cn1 [Compound 31, ethyl 9-ethyl-β-carboline-3-carboxylate] | 19.7 g | 26.7 g | 28.04% | 1.88 ± 0.21 g | 20.0 g | 26.1 g | 37.02% | 1.65 ± 0.16 g | 36.21% |  |  | 24.3 g | 20.6 g | 30.04% | 1.70 ± 0.12 g | 23.7 g | 20.5 g | 36.21% | 1.55 ± 0.22 g | 37.02% | IC50 ([2]; HepG2 cell strain, read-out: IC50 HepG2): 110 µM; IC50 ([3]; Hela cell strain, read-out: IC50 Hela): 140 µM; IC50 ([4]; BGC823 cell strain, read-out: IC50 BGC823): 140 µM; IC50 ([5]; Lovo cell strain, read-out: IC50 Lovo): 70 µM; IC50 ([6]; PLA-801 cell strain, read-out: IC50 PLA-801): 170 µM; IC50 ([7]; NIH3T3 cell strain, read-out: IC50 NIH3T3): 100 µM; IC50 ([9]; Bel7402 cell strain, read-out: IC50 Bel7402): 260 µM
